Measurements from patent US9446267B2, “Products comprising a flavoring agent composition” (SYMRISE AG, priority 2009, dated 2016).
Read-outs that look alike come from different tables or passages of the source.

Experiments:
[1] = L-menthol given a strength of 100; cited from earlier work
[2] = Sensorial assessment of the bitter-sharp note of menthol in toothpaste by a panel of trained experts; type: in vivo; conditions: for bitter-sharp note of the menthol / bitter perception: flavoring agent composition at 1.2 wt. % in toothpaste, usage conditions, expert panel
Method: The flavoring agent compositions obtained in this way were in each case incorporated into a respective standard toothpaste mass with a silicic acid basis in a concentration of 1.2 wt. %, in relation to the overall weight of the resulting toothpaste. The toothpastes were tested by a panel of sensorially trained experts under usage conditions. […] Without the use of anethole in the 2nd formulation the bitter-sharp note clearly emerged and the taste result was perceived overall to be unacceptable.
The flavoring agent compositions obtained in this way were in each case incorporated into a respective standard toothpaste mass with a silicic acid basis in a concentration of 1.2 wt. %, in relation to the overall weight of the resulting toothpaste. The toothpastes were tested by a panel of sensorially trained experts under usage conditions.
(§1) The toothpaste prepared in this way was tested by a panel of sensorially trained experts under usage conditions and compared with the toothpaste containing menthane carboxylic acid-N-(4-methoxyphenyl)-amide (WS-12) according to the 1st formulation of Example 1.2 in respect of the bitter perception and the duration of the cooling sensation of freshness.
The flavoring agent composition obtained in this way was incorporated into a standard toothpaste mass with a silicic acid base in a concentration of 1.2 wt. %, in relation to the overall weight of the resulting toothpaste. The toothpaste was tested by a panel of sensorially trained experts under usage conditions. […] Since through the use of menthane carboxylic acid-N-(4-methoxyphenyl)-amide (WS-12) in combination with the further flavoring agents with a log-Kow value in the range of 1.5-5 (I-menthyl acetate, 1,8-cineole, cinnamaldehyde, and abovementioned corresponding proportions of peppermint oils) a strong reduction in bitterness (of the menthol) was achieved, it was advantageously possible to dispense with the use of anethole to reduce the bitterness. Apart from a pleasant, distinctly fresh, long-lasting taste impression, the toothpaste was also able to impart a distinct, sweet cinnamon note as a result of the proportion of cinnamaldehyde.
The flavoring agent compositions according to Example 4.1 (for a teeth cleaning compound for comparative purposes) and Example 4.2 (for a teeth cleaning compound according to the invention) were in each case incorporated with a concentration of 1.2 wt. %, in relation to the overall weight of the resulting toothpaste into a respective toothpaste mass, containing a proportion of 65 wt. % sodium bicarbonate. […]

[3] = Sensorial assessment of intensity and duration of the cooling sensation of freshness of toothpaste; type: in vivo; conditions: for intensity of coolness perceived: scale of 0 to 10, toothpaste with 1.2 wt. % flavoring composition of Example 1.2 containing 0.5 wt. % cooling agent; for duration of the cooling sensation of freshness: teeth cleaning compound / toothpaste, in words
Method: The proportion of menthane carboxylic acid-N-(4-methoxyphenyl)-amide (WS-12) in the 1st preparation of Example 1.2 was replaced by menthane-3-carboxylic acid-N-ethyl amide (WS-3).
The flavoring agent composition obtained was likewise incorporated into a standard toothpaste mass with a silicic acid base in a concentration of 1.2 wt. %, in relation to the overall weight of the resultant toothpaste.
as §1
The abscissa of FIG. 1 gives the time in minutes elapsing since cleaning of the teeth with the respective toothpaste.
The intensity of coolness perceived was rated on a scale of 0 to 10, with a value of “0” corresponding to the lowest or no intensity of coolness perceived and a value of “[…]” corresponding to the highest intensity of coolness perceived.

[4] = on the philtrum fold (upper lip); cited from earlier work
cold receptor TRPM8 = cold receptor TRPM8 (Homo sapiens, UniProt Q7Z2W7); conditions: cited from earlier work
cold receptor TRPM8, sequence (Q7Z2W7 whole entry): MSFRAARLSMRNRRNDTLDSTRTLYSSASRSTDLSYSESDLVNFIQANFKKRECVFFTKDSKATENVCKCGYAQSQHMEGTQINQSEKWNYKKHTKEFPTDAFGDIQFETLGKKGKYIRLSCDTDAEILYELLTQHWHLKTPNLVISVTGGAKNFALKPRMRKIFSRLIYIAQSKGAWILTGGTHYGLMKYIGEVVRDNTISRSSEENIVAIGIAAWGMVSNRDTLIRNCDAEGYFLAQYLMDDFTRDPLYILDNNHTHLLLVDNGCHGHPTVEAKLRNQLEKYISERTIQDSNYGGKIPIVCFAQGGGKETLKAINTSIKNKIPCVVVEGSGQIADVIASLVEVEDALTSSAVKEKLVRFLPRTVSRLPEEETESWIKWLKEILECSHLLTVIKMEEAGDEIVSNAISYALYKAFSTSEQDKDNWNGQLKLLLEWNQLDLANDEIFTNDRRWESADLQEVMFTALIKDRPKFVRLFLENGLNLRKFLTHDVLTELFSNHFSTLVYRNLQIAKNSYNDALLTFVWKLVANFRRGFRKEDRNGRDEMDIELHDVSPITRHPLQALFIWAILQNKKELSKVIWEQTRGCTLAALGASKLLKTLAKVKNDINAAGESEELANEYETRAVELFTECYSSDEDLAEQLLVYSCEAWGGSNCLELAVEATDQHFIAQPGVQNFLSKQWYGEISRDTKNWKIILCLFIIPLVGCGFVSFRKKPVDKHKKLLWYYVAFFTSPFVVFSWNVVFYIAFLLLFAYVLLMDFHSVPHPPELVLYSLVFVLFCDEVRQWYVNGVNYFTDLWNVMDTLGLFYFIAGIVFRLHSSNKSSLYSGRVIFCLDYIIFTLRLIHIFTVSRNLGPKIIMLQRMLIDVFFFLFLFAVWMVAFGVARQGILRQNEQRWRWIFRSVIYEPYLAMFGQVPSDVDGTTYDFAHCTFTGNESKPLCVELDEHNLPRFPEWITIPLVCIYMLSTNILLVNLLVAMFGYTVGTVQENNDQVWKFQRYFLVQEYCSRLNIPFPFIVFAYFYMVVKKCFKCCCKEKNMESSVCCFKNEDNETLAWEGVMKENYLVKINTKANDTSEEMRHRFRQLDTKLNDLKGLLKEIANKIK

Solubility of WS-12 = type: physicochemical; conditions: in words
Text: In order to bring about the masking of the menthol to a sufficient extent, WS-12 must be dissolved in the flavoring agent composition of the teeth cleaning compound in a sufficient quantity. Our own preliminary investigations have shown that in certain conventional flavoring agent compositions the solubility of the WS-12 is so low that only an insufficient masking (reduction or decrease) in the negative taste impressions of the menthol can be achieved.

[5] = cited from earlier work

Row | Compound | relative cooling strength compared with L-menthol [1] | bitter-sharp note of the menthol / bitter perception [2] | intensity of coolness perceived ([3]; after 35 minutes) | duration of the cooling sensation of freshness [3] | other results
1 | CC(C)[C@@H]1CC[C@@H](C)C[C@H]1O [L-menthol] | 100 | – | – | – | –
2 | CCNC(=O)C1CC(C)CCC1C(C)C [WS-3, L-menthane carboxylic acid-N-ethyl amide] | 150 | hardly reduced | 0 | only for a relatively short time | reduction or masking of the bitterness or sharpness caused by menthol ([2]; addition to a conventional teeth cleaning compound containing menthol): did not lead to a significant reduction
3 | CCOC(=O)CNC(=O)C1CC(C)CCC1C(C)C [WS-5, N^α-(L-menthane carbonyl)-glycine ethyl ester] | 400 | – | – | – | –
4 | COc1ccc(NC(=O)C2CC(C)CCC2C(C)C)cc1 (stereo not shown) [WS-12, menthane carboxylic acid-N-(4-methoxyphenyl)-amide] | 150 | significantly reduced | 3 | comparatively long-lasting | cooling duration [4]: under one hour; effect on the TRPM8 cold receptor (cold receptor TRPM8): stronger effect than WS-5; effect on the TRPM8 cold receptor (cold receptor TRPM8; listed as menthane carboxylic acid-N-(4-methoxyphenyl)-amide): one of the strongest cooling substances; solubility (Solubility of WS-12): relatively not readily soluble; intensity of coolness perceived ([3]; after 60 minutes): ~1.5; duration of cooling effect on the upper lip ([5]; remaining on the upper lip): up to half an hour; cooling effect compared with WS-5 ([5]; upper lip): lower than WS-5
5 | CC=Cc1ccc(OC)cc1 [anethole] | – | neutralized | – | – | –
